Laboratory results: US20150064713A1, “METHODS, KITS AND MEANS FOR DETERMINING INTRACELLULAR INTERACTIONS” (priority 2013, published 2015)

System: regulatory and catalytic subunits of the cAMP dependent protein kinase A (PKA)
Test: PKA regulatory/catalytic subunit interaction monitored in living cells via VSVG RII-β-PARC (bait) and mCherry-cat-α (prey), TIRFM
Type: cell-based
Conditions: mCherry-cat-α prey, within seconds upon addition
Text: FIG. 8 Monitoring protein reaction dynamics inside individual cells. A: Domain structures of bait-PARCs to measure PKA subunit interactions. B: A bait-PARC containing the regulatory domain RII-β of PKA was co-expressed with the cytosolic prey protein (mCherry-cat- ? to monitor their interaction dynamics inside living cells. Left: Recruitment of the prey to bait microstructures before and after pharmacological perturbation. Right: Derived prey recruitment kinetics (Iso: Isoproterenol; Prop: Propranolol; F/I: forskolin+IBMX; see Supplementary Methods for details). Scale bar: 5 μm. c: Two distinct regulatory domains on bait-PARCs were co-expressed together with the prey protein mCherry-cat- ? . Left: Image of a representative experiment depicting cells grown on a DNA-immobilized antibody array. The checkerboard pattern of antibodies is overlayed with magenta (anti-HA) or cyan (anti-VSVG) circles. Right: The recruitment of prey proteins to the two distinct bait proteins was monitored in individual microstructured spots via TIRFM during pharmacological perturbation (Iso: Isoproterenol; ATP: adenosine triphosphate; F/I: forskolin+IBMX). Scale bar: 10 μm.
Agonist induced activation of G-protein coupled receptors (GPCRs) leads to the dissociation of regulatory and catalytic subunits of the cAMP dependent protein kinase A (PKA) (Wong and Scott, 2004). […]

SMILES: CC(C)NCC(O)c1ccc(O)c(O)c1 (stereo not shown) [isoproterenol]
- interaction between bait and prey upon addition of agonist: the interaction between bait and prey was lost
